Assays:
Type in all cases: cell-based
L-SIGN [1] = target: T1, L-SIGN (Homo sapiens, UniProt Q9H2X3); test: HIV-1 enhancement assay, pseudotyped HIV-1 ADA, HEK293T cells expressing L-SIGN co-cultured with activated T cells; conditions: preincubation 20 μg/ml, after two days, FIG. 5B
T1 construct: The L-SIGN cDNA clone isolated from placental mRNA contained the entire coding region of the gene; expressed in transfected cells
T1 sequence (Q9H2X3 1-376 isoform Q9H2X3-8): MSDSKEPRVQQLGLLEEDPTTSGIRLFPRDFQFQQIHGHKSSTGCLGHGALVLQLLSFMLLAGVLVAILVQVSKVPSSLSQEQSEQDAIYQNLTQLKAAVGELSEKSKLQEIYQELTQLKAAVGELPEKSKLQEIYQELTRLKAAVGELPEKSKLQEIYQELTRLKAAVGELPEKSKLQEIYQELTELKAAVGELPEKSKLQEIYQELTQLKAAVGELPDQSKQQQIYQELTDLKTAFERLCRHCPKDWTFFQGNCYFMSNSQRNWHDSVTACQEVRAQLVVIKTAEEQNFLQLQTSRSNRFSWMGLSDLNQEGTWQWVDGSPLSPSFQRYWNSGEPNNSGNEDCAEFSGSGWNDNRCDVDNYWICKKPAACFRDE
Description: (§1) FIG. 5. L-SIGN captures and enhances infection of T cells with HIV-1 in trans. (A) L-SIGN captures HIV-1 and transmits it to target cells. Stable DC-SIGN or L-SIGN expressing THP-1 transfectants were pre-incubated with HIV-luc/JRFL pseudovirions to allow capture of the virus. Cells were washed and THP-1 transfectants were co-cultured with Hut/CCR5 target cells. Cell lysates were obtained after 3 days and analyzed for luciferase activity. For each of the co-culture conditions employed, mock infected controls were uniformly less than 100 counts per second in activity. Each data set represents the mean of four separate wells of infected cells. One representative experiment out of two is shown. […] Infectivity was determined after two days by measuring luciferase activity. […] Culture supernatants were collected at day 14 after K562-T cell co-culture and HIV-1 production was measured using ELISA to determine p24 antigen levels. […]
(§2) The infection assays were performed as described previously (Geijtenbeek, 2000a, supra; Geijtenbeek 2000b, supra). […] Viral stocks were evaluated by limiting dilution on GHOST CXCR4/CCR5 and 293T-CD4-CCR5 cells.
(§3) In contrast, HIV-1 enhancement assays utilized suboptimal concentrations of virus (typically <0.05 m.o.i.) without a wash step. […] Cell lysates were obtained after several days and analyzed for either luciferase activity or p24 antigen levels. […]

DC-SIGN [2] = target: T2, DC-SIGN (Homo sapiens, UniProt Q9NNX6); test: HIV-1 enhancement assay, pseudotyped HIV-1 ADA, HEK293T cells expressing DC-SIGN co-cultured with activated T cells; conditions: preincubation 20 μg/ml, after two days, FIG. 5B
T2 construct: expressed in transfected cells
T2 sequence (Q9NNX6 1-404): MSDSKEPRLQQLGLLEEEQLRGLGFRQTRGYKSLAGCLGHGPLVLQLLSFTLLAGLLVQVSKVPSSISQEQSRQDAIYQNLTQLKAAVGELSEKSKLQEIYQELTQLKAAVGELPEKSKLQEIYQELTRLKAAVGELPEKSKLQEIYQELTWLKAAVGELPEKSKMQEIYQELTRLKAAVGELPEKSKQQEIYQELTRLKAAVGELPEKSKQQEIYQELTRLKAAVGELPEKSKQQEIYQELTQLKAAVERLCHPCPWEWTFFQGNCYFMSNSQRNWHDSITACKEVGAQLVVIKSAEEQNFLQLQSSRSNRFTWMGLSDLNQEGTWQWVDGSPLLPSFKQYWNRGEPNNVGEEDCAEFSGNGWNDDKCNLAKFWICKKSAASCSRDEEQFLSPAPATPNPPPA
Description: as §1, §2, §3

L-SIGN [3] = target: T1, L-SIGN; test: Fluorescent beads adhesion assay, K562-L-SIGN cells; conditions: for inhibition of adhesion of ICAM-3-coated fluorescent beads to L-SIGN: FIG. 4A; for inhibition of adhesion of HIV-1 gp120-coated fluorescent beads to L-SIGN: FIG. 4B
Description: (§4) FIG. 4. L-SIGN binds ICAM-3 (A) and HIV-1 gp120 (B). Adhesion of ICAM-3 and gp120 to the K562-L-SIGN and K562-DC-SIGN cells was measured with the fluorescent bead adhesion assay (Geijtenbeek, T. B. et al., 1999, Blood 94:754-764). The y-axis represents the percent cells binding ligand-coated fluorescent beads. The L-SIGN-cross-reacting mAb AZN-D2 (20 μg/ml) and AZN-D3 (20 μg/ml) inhibit the adhesion of ICAM-3 and gp120 to L-SIGN, in contrast to the DC-SIGN-specific mAb AZN-D1 (20 μg/ml). […] Adhesion of both ligands to mock transfectants was less than 5%. One representative experiment out of three is shown (SD<5%).
(§5) Carboxylate-modified TransFluorSpheres (488/645 nm, 1.0 μm; Molecular Probes, Eugene, Oreg.) were coated with ICAM-3 as was previously described for ICAM-1 (Geijtenbeek, T. B. et al., 1999, Blood 94:754-764). Fluorescent beads were coated with M-tropic HIV-1MN envelope glycoprotein gp120 as follows: Streptavidin-coated fluorescent beads were incubated with biotinylated F(ab′)2 fragment rabbit anti-sheep IgG (6 μg/ml; Jackson Immunoresearch) followed by an overnight incubation with sheep-anti-gp120 antibody D7324 (Aalto Bio Reagents Ltd, Dublin, Ireland) at 4° C. The beads were washed and incubated with 250 ng/ml purified HIV-1 gp120 (provided by Immunodiagnostics, Inc through the NIH AIDS Research and Reference Reagent Program) overnight at 4° C.
(§6) The fluorescent beads adhesion assay was performed as described by Geijtenbeek et al.(l999, supra). Briefly, cells were resuspended in adhesion buffer (20 mM Tris-HCl pH 8.0, 150 mM NaCl, 1 mM CaCl2, 2 mM MgCl2, 0.5% BSA) at a final concentration of 5×10^6 cells/ml. 50,000 cells were pre-incubated with mAb (20 μg/ml) for 10 min at room temperature. Ligand-coated fluorescent beads (20 beads/cell) were added and the suspension was incubated for 30 min at 37° C. Adhesion was determined by measuring the percentage of cells that bound fluorescent beads using flow cytometry on a FACScan (Becton Dickinson, Oxnard, Calif.).

DC-SIGN [4] = target: T2, DC-SIGN; test: Fluorescent beads adhesion assay, K562-DC-SIGN cells; conditions: for inhibition of adhesion of ICAM-3-coated fluorescent beads to DC-SIGN: FIG. 4A; for inhibition of adhesion of HIV-1 gp120-coated fluorescent beads to DC-SIGN: FIG. 4B
Description: as §4, §5, §6

mannan
efficiently inhibited: inhibition of L-SIGN-mediated enhancement of HIV-1 infection of T cells in trans (luciferase activity) (L-SIGN [1]) | inhibition of DC-SIGN-mediated enhancement of HIV-1 infection of T cells in trans (luciferase activity) (DC-SIGN [2])
inhibited: inhibition of adhesion of ICAM-3-coated fluorescent beads to L-SIGN (L-SIGN [3]; 20 μg/ml) | inhibition of adhesion of HIV-1 gp120-coated fluorescent beads to L-SIGN (L-SIGN [3]; 20 μg/ml) | inhibition of adhesion of ICAM-3-coated fluorescent beads to DC-SIGN (DC-SIGN [4]; 20 μg/ml) | inhibition of adhesion of HIV-1 gp120-coated fluorescent beads to DC-SIGN (DC-SIGN [4]; 20 μg/ml)

O=C(O)CN(CCOCCOCCN(CC(=O)O)CC(=O)O)CC(=O)O [EGTA]
inhibited: inhibition of adhesion of ICAM-3-coated fluorescent beads to L-SIGN (L-SIGN [3]; 5 mM) | inhibition of adhesion of HIV-1 gp120-coated fluorescent beads to L-SIGN (L-SIGN [3]; 5 mM) | inhibition of adhesion of ICAM-3-coated fluorescent beads to DC-SIGN (DC-SIGN [4]; 5 mM) | inhibition of adhesion of HIV-1 gp120-coated fluorescent beads to DC-SIGN (DC-SIGN [4]; 5 mM)

— patent publication US20070134693A1, “Method for modulating the binding activity of a novel ICAM-3 binding receptor on sinusoidal endothelial cells in liver and lymph nodes” (priority 2000, published 2007)
